According to patent US20250332178A1, “METHODS OF TREATING MYCOBACTERIAL INFECTIONS USING TETRACYCLINE COMPOUNDS” (priority 2018, published 2025):
Values after ≈ are worked out from the molar mass of the structure shown. Read-outs that look alike come from different tables or passages of the source.

What was measured:
Format in all cases: cell-based
[1] = tested on: M. arupense; experiment: MIC (CLSI broth dilution), slow-growing NTM isolates; settings: isolate 11, Other; read-out: MIC
[2] = tested on: M. simiae; experiment: as above; settings: read-out: MIC
[3] = tested on: M. chelonae; experiment: MIC (CLSI broth dilution), RGM isolates; settings: Mycobacteroides chelonae, read-out: MIC
[4] = tested on: M. immunogenum group; experiment: MIC (CLSI broth dilution), RGM isolates; settings: M. immunogenum, read-out: MIC

Row | Structure (SMILES) | MIC [1] [µg/mL] | MIC ([2]; isolate 13, Other) [µg/mL] | MIC ([2]; isolate 14, Other) [µg/mL] | MIC ([2]; isolate 15, Other) [µg/mL] | MIC ([3]; isolate 18, M. chelonae) [µg/mL] | MIC ([3]; isolate 19, M. chelonae) [µg/mL] | MIC ([3]; isolate 20, M. chelonae) [µg/mL] | MIC ([3]; isolate 21, M. chelonae) [µg/mL] | MIC ([3]; isolate 22, M. chelonae) [µg/mL] | MIC ([4]; isolate 36, M. immunogenum group) [µg/mL] | MIC ([4]; isolate 37, M. immunogenum group) [µg/mL] | MIC ([4]; isolate 38, M. immunogenum group) [µg/mL]
1 | CO[C@H]1/C=C/O[C@@]2(C)Oc3c(C)c(O)c4c(c3C2=O)C2=NC3(CCN(CC(C)C)CC3)NC2=C(NC(=O)/C(C)=C\C=C\[C@H](C)[C@H](O)[C@@H](C)[C@@H](O)[C@@H](C)[C@H](OC(C)=O)[C@@H]1C)C4=O [RFB, rifabutin] | ≤ 0.25 | ≤ 0.25 | > 2 | > 2 | – | – | – | – | – | – | – | –
2 | CO[C@H]1/C=C/O[C@@]2(C)Oc3c(C)c(O)c4c(O)c(c(/C=N/N5CCN(C)CC5)c(O)c4c3C2=O)NC(=O)/C(C)=C\C=C\[C@H](C)[C@H](O)[C@@H](C)[C@@H](O)[C@@H](C)[C@H](OC(C)=O)[C@@H]1C [RIF, rifampin] | > 2 | > 2 | > 2 | > 2 | – | – | – | – | – | – | – | –
3 | NC[C@H]1O[C@H](O[C@H]2[C@H](O)[C@@H](O[C@H]3O[C@H](CO)[C@@H](O)[C@H](N)[C@H]3O)[C@H](N)C[C@@H]2N)[C@H](N)C[C@@H]1O [TOB, tobramycin] | – | – | – | – | ≤ 2 | ≤ 2 | ≤ 2 | ≤ 2 | ≤ 2 | 8 (≈ 17.1 µM) | > 8 | > 8
